{"source": "ChEMBL document CHEMBL1201862", "about": "“PubChem BioAssay data set” (2004)", "assay_in_all_cases": "NCI anticancer screen, dose series, 48 h", "key": {"[1]": {"system": "SK-OV-3"}, "[2]": {"system": "U-251"}, "[3]": {"system": "UACC-62"}, "[4]": {"system": "HCT-15"}, "[5]": {"system": "OVCAR-4"}, "[6]": {"system": "RPMI-8226"}, "[7]": {"system": "MDA-MB-231"}, "[8]": {"system": "SF-268"}, "[9]": {"system": "NCI-H23"}, "[10]": {"system": "SNB-19"}, "[11]": {"system": "COLO 205"}, "[12]": {"system": "CCRF-CEM"}, "[13]": {"system": "SN12C"}, "[14]": {"system": "786-0"}, "[15]": {"system": "SK-MEL-5"}, "[16]": {"system": "HOP-92"}, "[17]": {"system": "A549"}, "[18]": {"system": "NCI/ADR-RES"}, "[19]": {"system": "HT-29"}, "[20]": {"system": "Hs-578T"}}, "note": "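96-well plates; 48 h exposure; 5 concentrations. Endpoints by linear interpolation between flanking doses. Not reached: highest tested concentration assigned. GI50 marks 50% less growth.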 Activity calls are given as the source filed them. Cut-off read from the data, not from the text of the source: active = GI50 up to about 1.1 µM and inactive = higher.", "data": [{"smiles": "C=CCOC(=O)CCCCCCCCCCCCCCCOC(=O)C1=C(CCC[C@@H](C)O[Si](C)(C)C(C)(C)C)NC(=O)N2[C@H](CC3(CC/C=C\\[C@H](CC)O[Si](C(C)C)(C(C)C)C(C)C)OCCO3)CC[C@H]12", "values": [{"measurement": "GI50", "setting": "[1]", "result": "> 100 µM (inactive)"}, {"measurement": "GI50", "setting": "[2]", "result": "> 100 µM (inactive)"}, {"measurement": "GI50", "setting": "[3]", "result": "> 100 µM (inactive)"}, {"measurement": "GI50", "setting": "[4]", "result": "> 100", "unit": "µM"}, {"measurement": "GI50", "setting": "[5]", "result": "> 100 µM (inactive)"}, {"measurement": "GI50", "setting": "[6]", "result": "> 100 µM (inactive)"}, {"measurement": "GI50", "setting": "[7]", "result": "> 100 µM (inactive)"}, {"measurement": "GI50", "setting": "[8]", "result": "> 100 µM (inactive)"}, {"measurement": "GI50", "setting": "[9]", "result": "> 100 µM (inactive)"}, {"measurement": "GI50", "setting": "[10]", "result": "> 100 µM (inactive)"}, {"measurement": "GI50", "setting": "[11]", "result": "> 100 µM (inactive)"}, {"measurement": "GI50", "setting": "[12]", "result": "> 100 µM (inactive)"}, {"measurement": "GI50", "setting": "[13]", "result": "> 100 µM (inactive)"}, {"measurement": "GI50", "setting": "[14]", "result": "> 100 µM (inactive)"}, {"measurement": "GI50", "setting": "[15]", "result": "> 100 µM (inactive)"}, {"measurement": "GI50", "setting": "[16]", "result": "18.9 µM (inactive)"}, {"measurement": "GI50", "setting": "[17]", "result": "> 100 µM (inactive)"}, {"measurement": "GI50", "setting": "[18]", "result": "> 100 µM (inactive)"}]}, {"smiles": "COC(=O)C(Cc1c[nH]c2ccccc12)NC(=O)C(Cc1c[nH]cn1)NC(=O)C1CCC(=O)N1C(=O)OCc1ccccc1", "note": "(stereo not drawn)", "values": [{"measurement": "GI50", "setting": "[2]", "result": "> 100 µM (inactive)"}, {"measurement": "GI50", "setting": "[3]", "result": "> 100 µM (inactive)"}, {"measurement": "GI50", "setting": "[6]", "result": "> 100 µM (inactive)"}, {"measurement": "GI50", "setting": "[9]", "result": "> 100 µM (inactive)"}, {"measurement": "GI50", "setting": "[19]", "result": "> 100 µM (inactive)"}, {"measurement": "GI50", "setting": "[10]", "result": "> 100 µM (inactive)"}, {"measurement": "GI50", "setting": "[11]", "result": "> 100 µM (inactive)"}, {"measurement": "GI50", "setting": "[12]", "result": "> 100 µM (inactive)"}, {"measurement": "GI50", "setting": "[14]", "result": "> 100 µM (inactive)"}, {"measurement": "GI50", "setting": "[20]", "result": "> 100 µM (inactive)"}, {"measurement": "GI50", "setting": "[15]", "result": "> 100 µM (inactive)"}, {"measurement": "GI50", "setting": "[16]", "result": "> 100 µM (inactive)"}, {"measurement": "GI50", "setting": "[17]", "result": "> 100 µM (inactive)"}]}, {"smiles": "O=Cc1cc(O)c(O)c(/C=N/n2c3ccccc3c3ccccc32)c1", "values": [{"measurement": "GI50", "setting": "[1]", "result": "6.55 µM (inactive)"}, {"measurement": "GI50", "setting": "[2]", "result": "6.14 µM (inactive)"}, {"measurement": "GI50", "setting": "[3]", "result": "7.83 µM (inactive)"}, {"measurement": "GI50", "setting": "[4]", "result": 2.18, "unit": "µM"}, {"measurement": "GI50", "setting": "[5]", "result": "2.17 µM (inactive)"}, {"measurement": "GI50", "setting": "[6]", "result": "2.05 µM (inactive)"}, {"measurement": "GI50", "setting": "[7]", "result": "7.1 µM (inactive)"}, {"measurement": "GI50", "setting": "[8]", "result": "3.98 µM (inactive)"}, {"measurement": "GI50", "setting": "[9]", "result": "8.09 µM (inactive)"}, {"measurement": "GI50", "setting": "[19]", "result": "18.7 µM (inactive)"}, {"measurement": "GI50", "setting": "[10]", "result": "8.61 µM (inactive)"}, {"measurement": "GI50", "setting": "[11]", "result": "10.8 µM (inactive)"}, {"measurement": "GI50", "setting": "[12]", "result": "1.58 µM (inactive)"}, {"measurement": "GI50", "setting": "[13]", "result": "4.56 µM (inactive)"}, {"measurement": "GI50", "setting": "[14]", "result": "4.41 µM (inactive)"}, {"measurement": "GI50", "setting": "[20]", "result": "19.3 µM (inactive)"}, {"measurement": "GI50", "setting": "[16]", "result": "2.72 µM (inactive)"}, {"measurement": "GI50", "setting": "[17]", "result": "12.8 µM (inactive)"}]}, {"smiles": "O=c1[nH]c(=O)n(COCc2ccccc2)cc1Nc1ccc(Br)cc1", "values": [{"measurement": "GI50", "setting": "[2]", "result": "> 100 µM (inactive)"}, {"measurement": "GI50", "setting": "[3]", "result": "> 100 µM (inactive)"}, {"measurement": "GI50", "setting": "[4]", "result": "> 100", "unit": "µM"}, {"measurement": "GI50", "setting": "[5]", "result": "> 100 µM (inactive)"}, {"measurement": "GI50", "setting": "[6]", "result": "> 100 µM (inactive)"}, {"measurement": "GI50", "setting": "[8]", "result": "28.5 µM (inactive)"}, {"measurement": "GI50", "setting": "[9]", "result": "> 100 µM (inactive)"}, {"measurement": "GI50", "setting": "[19]", "result": "> 100 µM (inactive)"}, {"measurement": "GI50", "setting": "[10]", "result": "> 100 µM (inactive)"}, {"measurement": "GI50", "setting": "[11]", "result": "> 100 µM (inactive)"}, {"measurement": "GI50", "setting": "[12]", "result": "> 100 µM (inactive)"}, {"measurement": "GI50", "setting": "[13]", "result": "> 100 µM (inactive)"}, {"measurement": "GI50", "setting": "[14]", "result": "> 100 µM (inactive)"}, {"measurement": "GI50", "setting": "[20]", "result": "> 100 µM (inactive)"}, {"measurement": "GI50", "setting": "[15]", "result": "> 100 µM (inactive)"}, {"measurement": "GI50", "setting": "[16]", "result": "> 100 µM (inactive)"}, {"measurement": "GI50", "setting": "[17]", "result": "> 100 µM (inactive)"}, {"measurement": "GI50", "setting": "[18]", "result": "> 100 µM (inactive)"}]}, {"smiles": "CC1(C)OC[C@@H](O)[C@H](C#N)CO1", "values": [{"measurement": "GI50", "setting": "[1]", "result": "> 100 µM (inactive)"}, {"measurement": "GI50", "setting": "[2]", "result": "> 100 µM (inactive)"}, {"measurement": "GI50", "setting": "[3]", "result": "> 100 µM (inactive)"}, {"measurement": "GI50", "setting": "[4]", "result": "> 100", "unit": "µM"}, {"measurement": "GI50", "setting": "[5]", "result": "> 100 µM (inactive)"}, {"measurement": "GI50", "setting": "[6]", "result": "> 100 µM (inactive)"}, {"measurement": "GI50", "setting": "[7]", "result": "> 100 µM (inactive)"}, {"measurement": "GI50", "setting": "[8]", "result": "> 100 µM (inactive)"}, {"measurement": "GI50", "setting": "[9]", "result": "> 100 µM (inactive)"}, {"measurement": "GI50", "setting": "[19]", "result": "> 100 µM (inactive)"}, {"measurement": "GI50", "setting": "[10]", "result": "> 100 µM (inactive)"}, {"measurement": "GI50", "setting": "[11]", "result": "> 100 µM (inactive)"}, {"measurement": "GI50", "setting": "[12]", "result": "> 100 µM (inactive)"}, {"measurement": "GI50", "setting": "[13]", "result": "> 100 µM (inactive)"}, {"measurement": "GI50", "setting": "[14]", "result": "> 100 µM (inactive)"}, {"measurement": "GI50", "setting": "[20]", "result": "> 100 µM (inactive)"}, {"measurement": "GI50", "setting": "[15]", "result": "> 100 µM (inactive)"}, {"measurement": "GI50", "setting": "[17]", "result": "> 100 µM (inactive)"}]}, {"smiles": "Clc1ccc(/N=c2\\oc3ccccc3cc2-c2nc3ccccc3[nH]2)c(Cl)c1", "values": [{"measurement": "GI50", "setting": "[1]", "result": "49.9 µM (inactive)"}, {"measurement": "GI50", "setting": "[3]", "result": "24.6 µM (inactive)"}, {"measurement": "GI50", "setting": "[4]", "result": "> 100", "unit": "µM"}, {"measurement": "GI50", "setting": "[5]", "result": "> 100 µM (inactive)"}, {"measurement": "GI50", "setting": "[6]", "result": "> 100 µM (inactive)"}, {"measurement": "GI50", "setting": "[8]", "result": "24.2 µM (inactive)"}, {"measurement": "GI50", "setting": "[9]", "result": "78.5 µM (inactive)"}, {"measurement": "GI50", "setting": "[19]", "result": "> 100 µM (inactive)"}, {"measurement": "GI50", "setting": "[10]", "result": "> 100 µM (inactive)"}, {"measurement": "GI50", "setting": "[12]", "result": "> 100 µM (inactive)"}, {"measurement": "GI50", "setting": "[20]", "result": "34.2 µM (inactive)"}, {"measurement": "GI50", "setting": "[16]", "result": "43.6 µM (inactive)"}, {"measurement": "GI50", "setting": "[18]", "result": "> 100 µM (inactive)"}]}]}
